Measured values from ChEMBL document CHEMBL1147776, “1-[4-(1H-Benzoimidazol-2-yl)-phenyl]-3-[4-(1H-benzoimidazol-2-yl)-phenyl]-urea derivatives as small molecule heparanase inhibitors” (Bioorg Med Chem Lett, 2006).

What was measured:
[1] = Plasma concentration in mice after 1 hour of ip administration; format: ADME, organism-based; conditions: mouse
[2] = Plasma concentration in mice after 4 hours of ip administration; format: ADME, organism-based; conditions: mouse
B16 = experiment: Inhibition of proliferation on B16-BL6 melanoma cells at 100 uM; format: functional; conditions: Mus musculus
Mus musculus = experiment: Inhibition of lung metastasis in C57 mice injected with B16-BL6 melanoma cells at 30 mg/kg, ip; format: functional; conditions: route intraperitoneal

- concentration at 1 h [1]: 31 µM
- concentration at 4 h [2]: 23 µM
Compound: O=C(Nc1ccc(-c2nc3ccccc3[nH]2)cc1)Nc1ccc(-c2nc3ccccc3[nH]2)cc1
- inhibition at 100 µM (B16): < 50%
- inhibition in vivo at 30 mg/kg (Mus musculus): 50%
